Data from patent US20180055868A1, “METHODS AND COMPOSITIONS FOR STIMULATING BONE REGENERATION” (New York University, priority 2012, published 2018).

How the values were obtained:
[1] = system: trephined calvarium bone defect; assay: Trephined 3 mm calvarial defect, collagen matrix reinjected daily, microCT bone regeneration (Example 2); format: in vivo, mice; details: 8 weeks post trephination; for concentration achieving maximal effect on bone regeneration / dose dependence of effect on bone regeneration: FIG. 3; for effect on bone regeneration: microCT, FIG. 2
Procedure: In FIG. 2B, the percentage bone regeneration is calculated as the percent of the original defect that was now filled with bone.
(§1) A 3 mm portion of the calvarium was trephined with a drill followed by implantation of a collagen matrix soaked in either a vehicle or a pharmacologic agent and/or receptor antagonists to promote bone regeneration. The matrix was reinjected daily with the agent for periods ranging from 2-8 weeks prior to harvest of the mice and examination of the calvaria. […] Experiments were performed with specific agonists and antagonists at varying doses, and specific receptor agonists were tested on corresponding knockout mice to better confirm the role of the indicated receptor.
(§2) Some of the calvaria were decalcified, and histochemical and immunohistochemical staining and microscopic analyses were performed. Other calvaria were cleaned of adherent tissue and subject to microCT analysis for bone defect size and percent regeneration measures.

[2] = system: trephined calvarium bone defect in A2BKO mice; assay: Calvarial defect bone regeneration in A2B receptor knockout (A2BKO) mice; format: in vivo; details: 8 weeks post trephination, FIG. 5
Procedure: as §1

[3] = system: osteoblasts and osteoclasts in the regenerating bone; assay: Histochemical and immunohistochemical staining of regenerating calvarial bone sections; format: in vivo, mice; details: for TRAP stained osteoclasts in the regenerating bone / alkaline phosphatase positive osteoblasts in the regenerating bone / RANK+ cells in the regenerating bone / RANKL+ cells in the regenerating bone / osteoprotegerin+ cells in the regenerating bone: cells/hpf vs control; for TRAP stained osteoclasts in the regenerating bone / alkaline phosphatase positive osteoblasts in the regenerating bone: FIG. 7; for bone formation shown histologically: histology of calvaria, FIG. 9; for RANK+ cells in the regenerating bone / RANKL+ cells in the regenerating bone / osteoprotegerin+ cells in the regenerating bone: immunohistochemistry, FIG. 8
Source text: Shown in FIG. 7A are representative medium powered fields of calvarial sections stained immunohistochemically for alkaline phosphatase (left hand column, a marker for osteoblasts). Shown in the next column of figures are sections stained histochemically for tartrate resistant acid phosphatase (a marker for osteoclasts). Arrows in these figures point to osteoblasts (first column) or osteoclasts (second column).
Paraffin embedded sections are stained immunohistochemically for RANK, RANKL or osteoprotegerin. Slides are imaged and positive cells (brown) are enumerated in three fields. Shown on the left are representative medium power sections of immunohistochemcically stained sections.
Staining of decalcified bone sections for osteoclasts (TRAP staining) and osteoblasts (alkaline phosphatase staining) was performed. Immunostaining for other markers of osteoclast (cathepsin K) lineage and other molecules of interest (e.g. semaphorin 4D, plexin-B1, nuclear b-catenin) were performed.
as §2

[4] = system: peripheral blood monocytes; details: effect mediated by adenosine acting at A1 receptors; cited from earlier work
A3 adenosine receptor = molecular target: T1, A3 adenosine receptor (Homo sapiens, UniProt P0DMS8); details: cited from earlier work
T1 sequence (P0DMS8 1-318): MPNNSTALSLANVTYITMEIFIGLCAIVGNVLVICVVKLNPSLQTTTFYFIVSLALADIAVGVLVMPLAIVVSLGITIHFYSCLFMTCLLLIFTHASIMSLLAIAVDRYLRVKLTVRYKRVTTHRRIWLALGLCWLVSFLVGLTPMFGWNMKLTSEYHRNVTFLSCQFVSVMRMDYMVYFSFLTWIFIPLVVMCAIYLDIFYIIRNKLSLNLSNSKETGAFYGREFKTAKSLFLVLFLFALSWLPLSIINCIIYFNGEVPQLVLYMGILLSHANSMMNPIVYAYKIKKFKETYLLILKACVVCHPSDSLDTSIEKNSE

defect in mouse calvaria = assay: 3 mm mouse calvarial bone defect with drug-soaked collagen matrix, microCT (Example 1); format: in vivo, C57B6 mice; details: collagen matrix in 3 mm calvarial defect, 8 weeks
Procedure: . Under general anesthesia a 3 mm in diameter defect is drilled into the skull of C57B6 mice. […]. The matrix is then reinjected with 100 μl of these agents daily for 8 weeks before harvest. […] FIG. 1B represents the percentage bone regeneration calculated as the percent of the original defect that was now filled with bone. Shown are the means (+SD) of results obtained in 3 animals for each condition. Results were analyzed by ANOVA. ***p<0.001
A 3 mm in diameter defect was created in mouse calvaria into which was fit a collagen matrix. […].

SMILES | concentration achieving maximal effect on bone regeneration [1] [µM] | dose dependence of effect on bone regeneration [1] | effect on bone regeneration [1] | TRAP stained osteoclasts in the regenerating bone [3] | alkaline phosphatase positive osteoblasts in the regenerating bone [3] | bone formation shown histologically [3] | RANK+ cells in the regenerating bone [3] | RANKL+ cells in the regenerating bone [3] | osteoprotegerin+ cells in the regenerating bone [3] | further results
N#Cc1c(N)nc(SCC(N)=O)c(C#N)c1-c1ccc(OCC2CC2)cc1 [BAY606583] | 1 | dose-dependent | stimulate bone regeneration |  |  |  |  |  |  | 
CCNC(=O)[C@H]1O[C@@H](n2cnc3c(N)nc(NCCc4ccc(CCC(=O)O)cc4)nc32)[C@H](O)[C@@H]1O [CGS21680] | 1 | dose-dependent | stimulate bone regeneration | reduce | increase | bone formation | reduction | reduction | increase | effect of the agent on bone regeneration upon deletion of the A2B receptor [2]: reverses the effect
CCCn1c(=O)c2[nH]c(C3CCCC3)nc2n(CCC)c1=O [DPCPX, 8-Cyclopentyl-1,3-dipropylxanthine] | 1 | dose-dependent | stimulate bone regeneration | reduce | increase | bone formation | reduction | reduction | increase | effect of the agent on bone regeneration upon deletion of the A2B receptor [2]: reverses the effect
CN(Cc1cnc2nc(N)nc(N)c2n1)c1ccc(C(=O)N[C@@H](CCC(=O)O)C(=O)O)cc1 [Methotrexate] |  |  |  |  |  |  |  |  |  | giant cell formation [4]: increases giant cell formation
Nc1nc(NCCc2ccc(O)cc2)nc2nc(-c3ccco3)nn12 [ZM241385] |  |  |  |  |  |  |  |  |  | effect of antagonist on bone regeneration promoted by dipyridamole ([1]; FIG. 4): blocks the effect; effect of antagonist on bone regeneration promoted by the A2A agonist CGS21680 ([1]; FIG. 4): blocks the effect
CNC(=O)[C@H]1O[C@@H](n2cnc3c(NCc4cccc(I)c4)ncnc32)[C@H](O)[C@@H]1O [adenosine A3 receptor agonist] | 1 | dose-dependent | no effect |  |  |  |  |  |  | 
Nc1ncnc2c1ncn2[C@@H]1O[C@H](CO)[C@@H](O)[C@H]1O [adenosine] |  |  |  |  |  |  |  |  |  | affinity for adenosine (A3 adenosine receptor): low-micromolar range
OCCN(CCO)c1nc(N2CCCCC2)c2nc(N(CCO)CCO)nc(N3CCCCC3)c2n1 [dipyridamole] | 1 | dose-dependent | promotes bone regeneration | reduce | increase | bone formation | reduction | reduction | increase | effect on bone regeneration (defect in mouse calvaria): stimulates bone regeneration
